Consider two molecules from ChEMBL document CHEMBL1127965, “Synthesis of novel monocyclic squalestatin analogues as potential inhibitors of squalene synthase” (Bioorg Med Chem Lett, 1994).

The target in the assay is T1, Squalene synthase (Rattus norvegicus, UniProt Q02769).
T1 sequence (Q02769 whole entry): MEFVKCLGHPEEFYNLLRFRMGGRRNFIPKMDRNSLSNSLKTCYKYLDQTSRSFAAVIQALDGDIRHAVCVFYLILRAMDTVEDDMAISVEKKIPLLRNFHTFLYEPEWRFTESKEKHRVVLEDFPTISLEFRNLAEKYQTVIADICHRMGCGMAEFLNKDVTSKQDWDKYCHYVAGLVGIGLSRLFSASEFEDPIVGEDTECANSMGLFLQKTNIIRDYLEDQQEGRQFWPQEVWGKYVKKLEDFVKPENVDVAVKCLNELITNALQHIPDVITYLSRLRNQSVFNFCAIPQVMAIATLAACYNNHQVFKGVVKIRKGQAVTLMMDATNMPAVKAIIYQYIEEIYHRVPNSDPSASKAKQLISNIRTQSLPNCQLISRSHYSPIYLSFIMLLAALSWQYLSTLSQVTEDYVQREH
As to the kind of experiment: In vitro inhibitory activity against rat liver squalene synthase.

The molecule `O=C(O)C1OC(CCCCCCc2ccccc2)OC(C(=O)O)C1(O)C(=O)O` (configuration not stated) came in with an IC50 of 8 µM.
`C=C(CCC12CCC(C(=O)O)(O1)C(O)(C(=O)O)C(C(=O)O)O2)[C@@H](OC(C)=O)[C@H](C)Cc1ccccc1` (some centres not stated) returned an IC50 of 0.057 µM.
